In patent US9393316B2, “Cancer targeting peptides for enhancing anti-cancer drug delivery and therapeutic efficiencies” (priority 2014, dated 2016):

What was measured:
HCT116 xenografts [1] = experiment: Immunohistochemical localization of phages in xenograft tumor and organs; type: in vivo, mice; conditions: tumor vs brain, heart, lungs, colon
Protocol: The tissue samples from in vivo phage homing experiment were embedded in frozen blocks. To evaluate the phage distribution in each tissue by immunohistochemistry, the frozen specimens were cut to 8-μm-thick sections and were collected on coated slides. The slides were washed with cold PBS to remove OCT and were fixed with 4% paraformaldehyde for 10 min at RT. To block endogenous peroxidase activity, the slides were soaked with 3% hydrogen peroxide in methanol for 30 min at RT. The nonspecific antibody binding sites were blocked by immersing the section with 1% BSA in PBS for 30 min at RT. The tissue sections were incubated with mouse anti-M13 monoclonal antibody at 1:250 dilution for 1 hr, followed by adding Super Enhancer reagent (Super SENSITIVE™ Polymer HRP Detection System/DAB, BioGenex) for 20 min and Poly-HRP reagent (BioGenex) for 30 min. After washing, the sections were developed with DAB (3,3′-diaminobenzidine) Chromogen (BioGenex) supplemented with Stable DAB buffer. The reaction was stopped by adding PBS. For nuclei staining, the slides were immersed in hematoxylin for 5 min, and were then mounted with mounting solution to terminate the reaction. The images of sections were taken and analyzed using automated acquisition system (TissueGnostics).

HCT116 xenografts [2] = experiment: In vivo tumor homing, phage titer in tumor and organs; design: species or system mice; conditions: 2×10^11 pfu i.v., PBS perfusion; vs brain, lungs, heart
Protocol: Non-obese diabetic-severe combined immunodeficiency (NOD/SCID) mice were injected subcutaneously (s.c.) into the dorsolateral flank with 5×10^6 HCT116 cells. When the xenograft tumor size reached 300±50 mm^3, the mice were injected intravascularly (i.v.) with 2×10^11 pfu of the targeting phage or control phage M13KO7. Seven min after injection, the mice were sacrificed and perfused through the heart with 50 mL of PBS to wash unbound phages. After perfusion, xenograft tumor and mouse organs were taken out, washed three times with cold PBS, and cut into pans, with some of them homogenized. The phages bound to each tissue sample were recovered by log-phase Escherichia coli ER2738 culture and were titered on LB/IPTG/X-Gal agar plates. In peptide competitive inhibition experiments, 2×10^9 pfu of phage was co-injected with 100 μg of corresponding peptide or an unrelated control peptide.
To investigate the targeting ability of the selected phage clones in vivo, mice bearing HCT116 xenografts (300 mm^3) were injected with 2×10^11 pfu of either the selected phages or control phage through the tail vein. Phages were circulated and then were perfused with PBS buffer to wash out non-specific binders in circulation. After perfusion, we recovered and determined the […] of phage in tumor masses and normal organs.

SAS = experiment: Cellular ELISA of phage clones; type: binding, human
Protocol: (§1) The selected phages were further identified by ELISA screening. 1×10^4 cells were seeded into each well of 96-well ELISA plates (Falcon, Calif., USA) overnight and were fixed with 2% paraformaldehyde or methanol/acetone (1:1) for 10 min at RT. The plates were washed twice with PBS and were blocked with 1% BSA in PBS (w/v) for 30 min at RT. Then individual phage clones were added and incubated for 1 hr at RT. Following washing three times with PBS, the plates were incubated with horseradish peroxidase (HRP)-conjugated mouse anti-M13 phage antibody (GE Healthcare) at 1:2000 dilution for 1 hr at RT. The plates were washed three times with PBS again, and were subsequently incubated with the peroxidase substrate o-phenylenediamine dihydrochloride (OPD; Sigma) plus H2O2. The reaction was terminated by 3 N HCl, and the absorbance was measured using microplate reader (Model 680, BioRad) at 490 nm. To evaluate the binding activities of the three selected phage clones to various human cancer cell lines, cellular ELISA was performed to detect sixteen types of human cancer cell lines, including A498, HTB-10, B16-F10, SKOV3, PC-3, U2OS, 1112SK, […], SAS, H460, MIA Paca-2, HCT116, HUVAC, CL1-5, Mahlavu, and MDA-MB-231.

H184 = experiment: Cellular ELISA of phage clones; type: binding, human
Protocol: as §1

CL1-5 = experiment: Cellular ELISA of phage clones; type: binding, human
Protocol: as §1

HTB-10 = experiment: Cellular ELISA of phage clones; type: binding, human
Protocol: as §1

H460 = experiment: Cellular ELISA of phage clones; type: binding, human
Protocol: as §1

HUVAC = experiment: Cellular ELISA of phage clones; type: binding, human
Protocol: as §1

MIA Paca-2 = experiment: Cellular ELISA of phage clones; type: binding, human
Protocol: as §1

PC-3 = experiment: Cellular ELISA of phage clones; type: binding, human
Protocol: as §1

U2OS = experiment: Cellular ELISA of phage clones; type: binding, human
Protocol: as §1

Mahlavu = experiment: Cellular ELISA of phage clones; type: binding, human
Protocol: as §1

MDA-MB-231 = experiment: Cellular ELISA of phage clones; type: binding, human
Protocol: as §1

A498 = experiment: Cellular ELISA of phage clones; type: binding, human
Protocol: as §1

SKOV3 = experiment: Cellular ELISA of phage clones; type: binding, human
Protocol: as §1

1112SK = experiment: Cellular ELISA of phage clones; type: binding, human
Protocol: as §1

SSMDIVLRAPLM [HCT74]
phage localization by immunostaining of tissue sections (HCT116 xenografts [1]): selectively localized in tumor tissues | phage localization by immunostaining of tissue sections (HCT116 xenografts [1]; listed as HCT-74): strong accumulated in the tumor | phage accumulation in tumor mass vs normal organs (phage titer) (HCT116 xenografts [2]): significantly accumulated in the tumor mass | binding by cellular ELISA (SAS): highly specific binding | binding by cellular ELISA (H184): highly specific binding | binding by cellular ELISA (CL1-5): moderate binding | binding by cellular ELISA (HTB-10): moderate binding | binding by cellular ELISA (H460): highly specific binding | binding by cellular ELISA (HUVAC): highly specific binding | binding by cellular ELISA (MIA Paca-2): highly specific binding | binding by cellular ELISA (PC-3): highly specific binding | binding by cellular ELISA (U2OS): highly specific binding | binding by cellular ELISA (Mahlavu): highly specific binding | binding by cellular ELISA (MDA-MB-231): highly specific binding | binding by cellular ELISA (A498): highly specific binding | binding by cellular ELISA (SKOV3): highly specific binding | binding by cellular ELISA (1112SK): highly specific binding
